Entries after “also recorded” stand apart in the source; their conditions may differ.
Tests used:
[1] = test system: P. aeruginosa BAA-47 cells; assay: NPN accumulation assay; type: cell-based, Pseudomonas aeruginosa; conditions: 64 μg/mL polymyxin-B; 64 and 128 μg/mL BPEI600; ~6×10^9 CFU/ml
Description: Overnight culture of P. aeruginosa BAA-47 was used to inoculate fresh CAMHB media for another 5 hr at 35° C. with shaking. Bacterial cells were collected by centrifugation at 6000 rpm for 40 min and resuspended in PBS. The OD600 of the cell suspension was adjusted to ˜1.0 and kept at room temperature during the experiment. Aliquots (180 μL/well) of the cell suspension were transferred to a 96-well flat-bottom black plate in the format of column 1, PBS blank; column 2, untreated control cells BAA-47; column 3, cells BAA-47+BPEI (sub-lethal concentration). Five technical replicates of each group were conducted. Fluorescent probes Hoechst 33342 bisbenzimide (H33342) or 1-N-phenylnaphthylamine (NPN) was added (20 μL) to each well with a final concentration of 5 μM. Fluorescence was read immediately after the addition of H33342 or NPN by a Tecan Infinite M20 plate reader with the excitation and emission filters of 355 and 460 nm for H33342 or 350 and 420 nm for NPN, respectively. Fluorescence data were normalized to the emission before cells were added in the PBS control, and they were plotted against time to show the cellular uptake of H33342 or NPN over 10 min.

[2] = test system: MRSA OU6 biofilms; assay: Biofilm disrupting assay (crystal violet), MRSA OU6; type: cell-based, Staphylococcus aureus; conditions: 64 and 128 μg/mL, 20 hr
Description: This experiment was conducted in parallel with polymyxin B (PmB, a cationic polypeptide antibiotic) and BPEI600. In short, an overnight MRSA OU 6 culture was inoculated in a tissue-culture treated 96-well plate (100 μL of tryptic soy broth or TSB/well) with an inoculation size of 1 μL/well (˜5×10^5 CFU/mL). The plate was incubated at 35° C. for 24 hr to allow the bacteria to form biofilm. It was then washed with water to remove planktonic bacteria and stained with 100 μL of crystal violet solution (0.1%) per well for 15 min. The stained plate was washed excessively with water 5 times to remove any unbound stain and air-dried overnight. […] A negative control (water only) and positive control (30% acetic acid) were also conducted at the same time of treatment. After 20 hr, without touching the biofilm layer in the bottom of the plate, solubilized solution in each treated well was carefully transferred to a new 96-well plate for an OD550 measurement, which represents the corresponding amount of biofilm disrupted by each treatment.

[3] = test system: P. aeruginosa BAA-47 cells; assay: Resazurin cell viability assay; type: cell-based, Pseudomonas aeruginosa; conditions: 64 μg/mL
Description: All fluorescence studies used a cell density of ˜6×10^9 CFU/mL, while checkerboard assays only inoculated a cell density of 5×10^5 CFU/mL. Therefore, an amount of 128 μg/mL BPEI for fluorescence assays is considered sub-lethal, which is tested and confirmed by resazurin assays. The reduction of resazurin to resorufin occurs via cellular metabolism and thus is an excellent reporter of cell viability. […] First, the cells in the fluorescence assays are viable and thus drug influx and efflux processes control the intracellular concentration rather than widespread disruption of outer membrane that leads to cell lysis.

Question: How did the “fold increase in NPN fluorescence intensity” value [1] turn out when polymyxin B was run?
Answer: 2.7 fold

Question: What about the “biofilm dispersal (crystal violet)” value [2] of the same substance?
Answer: slight dissolution in biomass

Question: And the “cell viability (resazurin)” value [3]?
Answer: near background levels; also recorded: lethal

— patent publication US20210260101A1, “POTENTIATED ANTIBIOTIC COMPOSITIONS AND METHODS OF USE FOR TREATING BACTERIAL INFECTIONS AND BIOFILMS” (priority 2018, published 2021)
